Laboratory results taken from US20140357655A1, “SPIROINDOLINE DERIVATIVES AS GONADOTROPIN- RELEASING HORMONE RECEPTOR ANTAGONISTS” (Bayer Intellectual Property GmbH, priority 2012, published 2014).

Biological target: T1, human GnRH receptor (Homo sapiens, UniProt P30968)
T1 sequence (P30968 1-328): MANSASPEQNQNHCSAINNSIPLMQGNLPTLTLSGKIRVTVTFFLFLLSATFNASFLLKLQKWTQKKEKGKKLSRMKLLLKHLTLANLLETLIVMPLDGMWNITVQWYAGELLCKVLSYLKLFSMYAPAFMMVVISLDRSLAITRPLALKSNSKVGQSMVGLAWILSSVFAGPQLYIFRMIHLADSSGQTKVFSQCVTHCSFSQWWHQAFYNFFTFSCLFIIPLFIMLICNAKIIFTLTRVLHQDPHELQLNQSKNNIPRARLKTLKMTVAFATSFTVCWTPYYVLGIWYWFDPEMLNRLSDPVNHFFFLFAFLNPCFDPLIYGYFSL
Assay: IP-One HTRF assay with buserelin (at EC80) stimulation
Type: cell-based
Conditions: CHO cells stably expressing human GnRH receptor, read-out: Potency in IP-One HTRF assay, given as IC50
How it was run: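 Ten-point duplicate titrations (20 μM to 1 nM) were fitted by 4-parameter model to normalized 665/620 nm HTRF ratios, 0% = no compound, 100% = no agonist. Assay measured IP1 accumulation in human GnRH-R CHO cells stimulated 1 h at 37° C with EC80 buserelin, then lysed 1 h at 22° C.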

Compound	IC50
NC(=O)c1cccc(NC(=O)c2ccc3c(c2)C2(CCS(=O)(=O)CC2)C(C2CC2)N3S(=O)(=O)c2ccc(F)cc2)c1 (single isomer, unassigned) [Example 51.1, N-(3-carbamoylphenyl)-2-cyclopropyl-1-[(4-fluorophenyl)sulfonyl]-1,2,2′,3′,5′,6′-hexahydrospiro[indole-3,4′-thiopyran]-5-carboxamide 1′,1′-dioxide]	0.08 µM
CC1N(S(=O)(=O)c2ccc(F)cc2)c2ccc(C(=O)Nc3cccc(S(C)(=O)=O)c3)cc2C12CCOCC2 (centres unmarked) [Example 10, 1-[(4-fluorophenyl)sulfonyl]-N-(3-mesylphenyl)-2-methyl-1,2,2′,3′,5′,6′-hexahydrospiro[indole-3,4′-pyran]-5-carboxamide]	1.39 µM
CC1N(S(=O)(=O)c2ccc(F)cc2)c2ccc(C(=O)NCc3ccccc3Cl)cc2C12CCOCC2 (single isomer, unassigned) [Example 2.2, N-(2-chlorobenzyl)-1-[(4-fluorophenyl)sulfonyl]-2-methyl-1,2,2′,3′,5′,6′-hexahydrospiro[indole-3,4′-pyran]-5-carboxamide]	0.083 µM
COc1cccc(S(=O)(=O)N2c3ccc(C(=O)NCc4ncccc4Cl)cc3C3(CCS(=O)(=O)CC3)C2C2CC2)c1 (single isomer, unassigned) [Example 41.2, N-[(3-chloropyridin-2-yl)methyl]-2-cyclopropyl-1-[(3-methoxyphenyl)sulfonyl]-1,2,2′,3′,5′,6′-hexahydrospiro[indole-3,4′-thiopyran]-5-carboxamide 1′,1′-dioxide]	0.428 µM
COc1cccc(S(=O)(=O)N2c3ccc(C(=O)NCc4ccc(F)cc4Cl)cc3C3(CCS(=O)(=O)CC3)C2C2CC2)c1 (single isomer, unassigned) [Example 46.2, N-(2-chloro-4-fluorobenzyl)-2-cyclopropyl-1-[(3-methoxyphenyl)sulfonyl]-1,2,2′,3′,5′,6′-hexahydrospiro[indole-3,4′-thiopyran]-5-carboxamide 1′,1′-dioxide]	0.732 µM
CS(=O)(=O)c1cccc(NC(=O)c2ccc3c(c2)C2(CCS(=O)(=O)CC2)C(C2CC2)N3S(=O)(=O)c2ccc(F)cc2)c1 (centres unmarked) [Example 23, 2-cyclopropyl-1-[(4-fluorophenyl)sulfonyl]-N-(3-mesylphenyl)-1,2,2′,3′,5′,6′-hexahydrospiro[indole-3,4′-thiopyran]-5-carboxamide 1′,1′-dioxide]	0.328 µM
CC(C)(NC(=O)c1ccc2c(c1)C1(CCS(=O)(=O)CC1)C(C1CC1)N2S(=O)(=O)c1ccc(F)cc1)c1ccc(F)cc1 (stereo not drawn) [Example 20, 2-cyclopropyl-N-(4-fluoro-α,α-dimethylbenzyl)-1-[(4-fluorophenyl)sulfonyl]-1,2,2′,3′,5′,6′-hexahydrospiro[indole-3,4′-thiopyran]-5-carboxamide 1′,1′-dioxide]	0.346 µM
COc1cccc(S(=O)(=O)N2c3ccc(C(=O)NCc4ncccc4C(F)(F)F)cc3C3(CCS(=O)(=O)CC3)C2C2CC2)c1 (centres unmarked) [Example 39, 2-cyclopropyl-1-[(3-methoxyphenyl)sulfonyl]-N-{[3-(trifluoromethyl)pyridin-2-yl]methyl}-1,2,2′,3′,5′,6′-hexahydrospiro[indole-3,4′-thiopyran]-5-carboxamide 1′,1′-dioxide]	0.053 µM
COc1cccc(S(=O)(=O)N2c3ccc(C(=O)NCc4ncccc4Cl)cc3C3(CCS(=O)(=O)CC3)C2C2CC2)c1 (centres unmarked) [Example 41, N-[(3-chloropyridin-2-yl)methyl]-2-cyclopropyl-1-[(3-methoxyphenyl)sulfonyl]-1,2,2′,3′,5′,6′-hexahydrospiro[indole-3,4′-thiopyran]-5-carboxamide 1′,1′-dioxide]	0.234 µM
O=C(NCc1ccc(F)cc1Cl)c1ccc2c(c1)C1(CCS(=O)(=O)CC1)C(C1CC1)N2S(=O)(=O)c1ccc(F)cc1 (centres unmarked) [Example 16, N-(2-chloro-4-fluorobenzyl)-2-cyclopropyl-1-[(4-fluorophenyl)sulfonyl]-1,2,2′,3′,5′,6′-hexahydrospiro[indole-3,4′-thiopyran]-5-carboxamide 1′,1′-dioxide]	0.074 µM
N#Cc1ccc(S(=O)(=O)N2c3ccc(C(=O)Nc4ccccc4Cl)cc3C3(CCS(=O)(=O)CC3)C2C2CC2)cc1 (centres unmarked) [Example 74, N-(2-chlorophenyl)-1-[(4-cyanophenyl)sulfonyl]-2-cyclopropyl-1,2,2′,3′,5′,6′-hexahydrospiro[indole-3,4′-thiopyran]-5-carboxamide 1′,1′-dioxide]	0.066 µM
N#Cc1cccc(S(=O)(=O)N2c3ccc(C(=O)Nc4cncc(Cl)c4)cc3C3(CCS(=O)(=O)CC3)C2C2CC2)c1 (single isomer, unassigned) [Example 77.2, N-(5-chloropyridin-3-yl)-1-[(3-cyanophenyl)sulfonyl]-2-cyclopropyl-1,2,2′,3′,5′,6′-hexahydrospiro[indole-3,4′-thiopyran]-5-carboxamide 1′,1′-dioxide]	0.963 µM
O=C(NCC1CCCCC1)c1ccc2c(c1)C1(CCS(=O)(=O)CC1)C(C1CC1)N2S(=O)(=O)c1ccc(F)cc1 (centres unmarked) [Example 36, N-(cyclohexylmethyl)-2-cyclopropyl-1-[(4-fluorophenyl)sulfonyl]-1,2,2′,3′,5′,6′-hexahydrospiro[indole-3,4′-thiopyran]-5-carboxamide 1′,1′-dioxide]	0.169 µM
O=C(NCc1ncccc1C(F)(F)F)c1ccc2c(c1)C1(CCS(=O)(=O)CC1)C(C1CC1)N2S(=O)(=O)c1cccc(OC(F)(F)F)c1 (centres unmarked) [Example 84, 2-cyclopropyl-1-{[3-(trifluoromethoxy)phenyl]sulfonyl)-N-{[3-(trifluoromethyl)pyridin-2-yl]methyl}-1,2,2′,3′,5′,6′-hexahydrospiro[indole-3,4′-thiopyran]-5-carboxamide 1′,1′-dioxide]	0.309 µM
N#Cc1ccc(S(=O)(=O)N2c3ccc(C(=O)NCc4ncccc4Cl)cc3C3(CCS(=O)(=O)CC3)C2C2CC2)cc1 (single isomer, unassigned) [Example 70.1, N-[(3-chloropyridin-2-yl)methyl]-1-[(4-cyanophenyl)sulfonyl]-2-cyclopropyl-1,2,2′,3′,5′,6′-hexahydrospiro[indole-3,4′-thiopyran]-5-carboxamide 1′,1′-dioxide]	0.033 µM
COc1cccc(S(=O)(=O)N2c3ccc(C(=O)NCc4ncccc4F)cc3C3(CCS(=O)(=O)CC3)C2C2CC2)c1 (centres unmarked) [Example 53, 2-cyclopropyl-N-[(3-fluoropyridin-2-yl)methyl]-1-[(3-methoxyphenyl)sulfonyl]-1,2,2′,3′,5′,6′-hexahydrospiro[indole-3,4′-thiopyran]-5-carboxamide 1′,1′-dioxide]	0.617 µM
CC1N(S(=O)(=O)c2ccc(F)cc2)c2ccc(C(=O)NCc3ncccc3C(F)(F)F)cc2C12CCOCC2 (single isomer, unassigned) [Example 3.1, 1-[(4-fluorophenyl)sulfonyl]-2-methyl-N-{[3-(trifluoromethyl)pyridin-2-yl]methyl}-1,2,2′,3′,5′,6′-hexahydrospiro[indole-3,4′-pyran]-5-carboxamide]	0.226 µM
COc1cccc(S(=O)(=O)N2c3ccc(C(=O)NCc4ncccc4C)cc3C3(CCS(=O)(=O)CC3)C2C2CC2)c1 (centres unmarked) [Example 45, 2-cyclopropyl-1-[(3-methoxyphenyl)sulfonyl]-N-[(3-methylpyridin-2-yl)methyl]-1,2,2′,3′,5′,6′-hexahydrospiro[indole-3,4′-thiopyran]-5-carboxamide 1′,1′-dioxide]	0.299 µM
O=C(NCC1CC1)c1ccc2c(c1)C1(CCS(=O)(=O)CC1)C(C1CC1)N2S(=O)(=O)c1ccc(F)cc1 (centres unmarked) [Example 35, 2-cyclopropyl-N-(cyclopropylmethyl)-1-[(4-fluorophenyl)sulfonyl]-1,2,2′,3′,5′,6′-hexahydrospiro[indole-3,4′-thiopyran]-5-carboxamide 1′,1′-dioxide]	0.627 µM
Cc1cccnc1CNC(=O)c1ccc2c(c1)C1(CCS(=O)(=O)CC1)C(C1CC1)N2S(=O)(=O)c1ccc(F)cc1 (single isomer, unassigned) [Example 31.2, 2-cyclopropyl-1-[(4-fluorophenyl)sulfonyl]-N-[(3-methylpyridin-2-yl)methyl]-1,2,2′,3′,5′,6′-hexahydrospiro[indole-3,4′-thiopyran]-5-carboxamide 1′,1′-dioxide]	15.1 µM
O=C(NCc1ccccc1Cl)c1ccc2c(c1)C1(CCSCC1)C(C1CC1)N2S(=O)(=O)c1ccc(F)cc1 (single isomer, unassigned) [Example 12.1, N-(2-Chlorobenzyl)-2-cyclopropyl-1-[(4-fluorophenyl)sulfonyl]-1,2,2′,3′,5′,6′-hexahydrospiro[indole-3,4′-thiopyran]-5-carboxamide]	0.178 µM
N#Cc1cccc(S(=O)(=O)N2c3ccc(C(=O)NCc4ncccc4C(F)(F)F)cc3C3(CCS(=O)(=O)CC3)C2C2CC2)c1 (single isomer, unassigned) [Example 79.2, 1-[(3-cyanophenyl)sulfonyl]-2-cyclopropyl-N-{[3-(trifluoromethyl)pyridin-2-yl]methyl}-1,2,2′,3′,5′,6′-hexahydrospiro[indole-3,4′-thiopyran]-5-carboxamide 1′,1′-dioxide]	1.02 µM
CC1N(S(=O)(=O)c2ccc(F)cc2)c2ccc(C(=O)Nc3cccc(S(=O)(=O)N(C)C)c3)cc2C12CCOCC2 (centres unmarked) [Example 11, N-[3-(N,N-dimethylsulfamoyl)phenyl]-1-[(4-fluorophenyl)sulfonyl]-2-methyl-1,2,2′,3′,5′,6′-hexahydrospiro[indole-3,4′-pyran]-5-carboxamide]	0.378 µM
